# No end group written: not given here.
# B1: Fluorescein-PGC1α peptide (peptide)
# peptide: EAEEPSLLKKLLLAPANTQ
# modifications: also: fluorescein (position not given here)
# notes: source: bought: Life Technologies PV4421
# Columns and labels:
# PR-A = biological target: T1, PR-A (Homo sapiens, UniProt P06401); test: PR-A transcriptional reporter assay, agonist mode (HEPG2 cells); type: cell-based; parameters: subcloning full-length PRa into pCMX; expressed in transfected cells; host or cells: HEPG2; details: % of maximal R5020-stimulated activity
# T1 sequence (P06401 1-769 isoform P06401-2): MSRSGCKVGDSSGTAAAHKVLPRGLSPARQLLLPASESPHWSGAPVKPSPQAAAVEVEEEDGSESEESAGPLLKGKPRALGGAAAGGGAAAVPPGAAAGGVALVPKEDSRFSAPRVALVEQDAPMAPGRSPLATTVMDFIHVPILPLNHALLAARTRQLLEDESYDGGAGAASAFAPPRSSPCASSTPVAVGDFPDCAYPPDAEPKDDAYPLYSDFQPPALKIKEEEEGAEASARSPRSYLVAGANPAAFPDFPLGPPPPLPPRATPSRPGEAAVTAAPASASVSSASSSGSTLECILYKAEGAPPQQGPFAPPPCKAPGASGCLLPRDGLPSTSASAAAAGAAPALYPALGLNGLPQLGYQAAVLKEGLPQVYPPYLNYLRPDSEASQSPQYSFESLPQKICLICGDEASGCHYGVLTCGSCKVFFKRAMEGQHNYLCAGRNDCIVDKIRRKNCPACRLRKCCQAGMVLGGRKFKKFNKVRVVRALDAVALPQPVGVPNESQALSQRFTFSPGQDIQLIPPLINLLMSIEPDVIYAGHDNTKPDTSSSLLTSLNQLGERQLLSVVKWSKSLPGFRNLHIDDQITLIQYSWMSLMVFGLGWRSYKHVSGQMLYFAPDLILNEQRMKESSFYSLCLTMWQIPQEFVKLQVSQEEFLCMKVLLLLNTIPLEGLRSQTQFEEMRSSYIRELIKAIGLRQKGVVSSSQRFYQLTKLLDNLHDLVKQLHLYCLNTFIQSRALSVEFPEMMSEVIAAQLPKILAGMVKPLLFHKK
# Method: (§1) Transcriptional assays were performed by seeding 100 μL of cells at a density of 250,000 cells/mL into 96-well cell culture plates in RPMI 1640 supplemented with 5% charcoal-stripped serum and allowed to attach overnight. […] Triplicate transfections were performed using 418 ng reporter vector (2X PRE-Luciferase for PR-A and PR-B, MMTV-Luciferase for MR), 50 ng CMVpRL (normalization vector), 10 ng NHR expression vector (CMX-PR-A, pCDNA-PR-B or 6R-MR), and 0.7 μL lipofectin. […] The final agonist concentration used in the antagonist assays was 1 nM. Following 24 hr incubation, the medium was removed and the cells were lysed in 40 μL of lysis buffer (25 mM Tris Phosphate, 2 mM CDTA, 10% Glycerol, 0.5% Triton X-100, 2 mM DTT). Firefly luciferase activity was measured immediately following the addition of 40 μL luciferase buffer (20 mM tricine, 0.1 mM EDTA, 1.07 mM (MgCO3)4 Mg(OH)2· 5H2O, 2.67 mM MgSO4, 33.3 mM DTT, 270 μM Coenzyme A, 470 μM luciferin, 530 μM ATP).
# PR-B = biological target: T2, PR-B (Homo sapiens, UniProt P06401); test: PR-B transcriptional reporter assay, agonist mode (HEPG2 cells); type: cell-based; details: % of maximal R5020-stimulated activity
# T2 construct: cloning full-length human PRb into pCDNA; expressed in transfected cells; host or cells: HEPG2
# T2 sequence (P06401 1-933): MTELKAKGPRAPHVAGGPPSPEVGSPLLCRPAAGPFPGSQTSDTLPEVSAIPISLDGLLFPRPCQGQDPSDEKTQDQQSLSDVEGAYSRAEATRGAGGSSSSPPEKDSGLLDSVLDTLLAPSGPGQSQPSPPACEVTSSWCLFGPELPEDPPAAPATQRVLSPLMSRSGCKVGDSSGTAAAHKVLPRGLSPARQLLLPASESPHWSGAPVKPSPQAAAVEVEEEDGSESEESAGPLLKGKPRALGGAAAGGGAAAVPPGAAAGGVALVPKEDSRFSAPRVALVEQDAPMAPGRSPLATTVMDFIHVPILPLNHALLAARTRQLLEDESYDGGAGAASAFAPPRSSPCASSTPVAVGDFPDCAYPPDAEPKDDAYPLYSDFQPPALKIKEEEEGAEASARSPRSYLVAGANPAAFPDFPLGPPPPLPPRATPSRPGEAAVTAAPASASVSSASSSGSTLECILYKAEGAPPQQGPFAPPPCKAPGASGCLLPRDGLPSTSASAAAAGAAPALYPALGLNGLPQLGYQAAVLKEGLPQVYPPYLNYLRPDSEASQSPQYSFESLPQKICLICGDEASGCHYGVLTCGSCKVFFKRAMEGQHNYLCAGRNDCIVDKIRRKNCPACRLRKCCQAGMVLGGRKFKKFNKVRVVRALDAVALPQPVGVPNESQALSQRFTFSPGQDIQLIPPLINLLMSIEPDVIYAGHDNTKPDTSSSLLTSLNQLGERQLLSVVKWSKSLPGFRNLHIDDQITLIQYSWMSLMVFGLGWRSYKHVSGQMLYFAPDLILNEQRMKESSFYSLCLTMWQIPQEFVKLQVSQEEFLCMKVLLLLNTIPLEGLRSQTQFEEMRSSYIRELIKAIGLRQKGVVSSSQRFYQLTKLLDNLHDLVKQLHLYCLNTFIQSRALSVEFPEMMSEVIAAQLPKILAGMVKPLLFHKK
# GR = biological target: T3, GR (Homo sapiens, UniProt P04150); test: GR transcriptional reporter assay, agonist mode (CV1 cells); type: cell-based; details: CV-1; % of maximal dexamethasone-stimulated activity
# T3 sequence (P04150 1-777): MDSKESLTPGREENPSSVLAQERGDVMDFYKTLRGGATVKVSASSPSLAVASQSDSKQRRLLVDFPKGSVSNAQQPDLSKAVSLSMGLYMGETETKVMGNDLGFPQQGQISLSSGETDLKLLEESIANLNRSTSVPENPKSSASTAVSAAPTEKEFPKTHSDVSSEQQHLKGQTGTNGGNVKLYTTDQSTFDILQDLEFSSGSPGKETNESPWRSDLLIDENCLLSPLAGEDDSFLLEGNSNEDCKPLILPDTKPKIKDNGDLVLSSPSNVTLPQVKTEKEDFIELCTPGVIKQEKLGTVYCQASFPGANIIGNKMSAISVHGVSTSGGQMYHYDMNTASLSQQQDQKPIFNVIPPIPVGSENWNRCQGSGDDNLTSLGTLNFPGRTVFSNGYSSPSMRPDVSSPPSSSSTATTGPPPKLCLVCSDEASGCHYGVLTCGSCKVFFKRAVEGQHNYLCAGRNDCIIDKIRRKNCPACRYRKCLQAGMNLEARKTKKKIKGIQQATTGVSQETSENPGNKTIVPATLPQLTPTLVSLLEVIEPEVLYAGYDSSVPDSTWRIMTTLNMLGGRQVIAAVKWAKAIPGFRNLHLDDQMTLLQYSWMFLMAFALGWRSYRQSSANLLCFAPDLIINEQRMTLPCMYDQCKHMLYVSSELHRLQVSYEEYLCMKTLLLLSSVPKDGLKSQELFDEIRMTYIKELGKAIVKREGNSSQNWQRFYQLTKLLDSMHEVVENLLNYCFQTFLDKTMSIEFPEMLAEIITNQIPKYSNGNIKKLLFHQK
# Method: CV1 cells were maintained in MEM supplemented with 10% FBS. Transcriptional assays were performed by seeding 12 mL of cells at a density of 250,000 cells/mL into a T-75 cell culture flask in MEM supplemented with 5% charcoal-stripped serum and allowed to attach overnight. Cells were transiently transfected using FuGENE 6 (Roche Applied Science). […] Transfected cells were incubated overnight then split into four 96-well tissue culture plates and incubated for 4 hr followed by compound addition. […] The final agonist concentration used in the antagonist assays was 10 nM.
# MR = biological target: T4, MR (Homo sapiens, UniProt P08235); test: MR transcriptional reporter assay, agonist mode (HEPG2 cells); type: cell-based; details: % of maximal aldosterone-stimulated activity
# T4 construct: expressed in transfected cells; host or cells: HEPG2
# T4 sequence (P08235 1-984): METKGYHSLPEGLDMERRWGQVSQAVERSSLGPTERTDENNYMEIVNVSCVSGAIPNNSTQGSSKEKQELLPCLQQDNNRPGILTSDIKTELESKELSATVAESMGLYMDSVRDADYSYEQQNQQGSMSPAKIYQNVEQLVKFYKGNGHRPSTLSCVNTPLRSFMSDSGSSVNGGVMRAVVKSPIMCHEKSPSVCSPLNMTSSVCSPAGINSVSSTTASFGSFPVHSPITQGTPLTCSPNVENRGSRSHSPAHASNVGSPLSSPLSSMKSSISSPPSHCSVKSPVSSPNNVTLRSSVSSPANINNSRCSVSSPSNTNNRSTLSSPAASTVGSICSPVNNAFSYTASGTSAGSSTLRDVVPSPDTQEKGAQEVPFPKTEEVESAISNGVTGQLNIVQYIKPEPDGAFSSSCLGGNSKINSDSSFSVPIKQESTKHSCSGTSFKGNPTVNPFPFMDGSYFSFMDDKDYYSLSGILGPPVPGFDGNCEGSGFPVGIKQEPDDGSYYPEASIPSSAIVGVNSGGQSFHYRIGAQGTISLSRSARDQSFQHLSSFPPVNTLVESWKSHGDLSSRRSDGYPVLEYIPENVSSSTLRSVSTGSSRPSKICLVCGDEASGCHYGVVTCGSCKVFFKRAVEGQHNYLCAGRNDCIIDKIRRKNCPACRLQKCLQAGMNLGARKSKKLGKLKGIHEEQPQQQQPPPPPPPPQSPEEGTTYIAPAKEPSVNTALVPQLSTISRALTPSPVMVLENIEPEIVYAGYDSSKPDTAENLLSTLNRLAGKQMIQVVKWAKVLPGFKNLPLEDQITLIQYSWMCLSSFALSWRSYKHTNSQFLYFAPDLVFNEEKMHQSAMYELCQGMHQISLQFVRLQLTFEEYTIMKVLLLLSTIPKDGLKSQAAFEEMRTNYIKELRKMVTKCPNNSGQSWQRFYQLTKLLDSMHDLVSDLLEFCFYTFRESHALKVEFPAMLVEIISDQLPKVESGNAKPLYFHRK
# Method: as §1
# [1] = biological target: T5, human estrogen receptor alpha, GST-tagged ESR1 ligand binding domain, residues S282-V595, wild-type sequence (human, UniProt P03372 282-595); test: FRET or BRET; cell-free TR-FRET PGC1α recruitment assay; GST-ERα LBD (3x solution 22 nM) detected with Tb-anti-GST antibody (3x mix 15 nM), Fluorescein-PGC1α peptide (3x mix 750 nM), estradiol (3x mix 12 nM; agonist at EC80), TR-FRET Co-regulator Buffer E with 7.5 mM DTT, 2 hr at room temperature; GDC-0810 titrated as small-molecule competitor; details: both partners purified
# T5 construct: Detected in the TR-FRET assay through a LanthaScreen Tb-anti-GST antibody; also called ER.WT; ERα LBD
# T5 sequence (looked up): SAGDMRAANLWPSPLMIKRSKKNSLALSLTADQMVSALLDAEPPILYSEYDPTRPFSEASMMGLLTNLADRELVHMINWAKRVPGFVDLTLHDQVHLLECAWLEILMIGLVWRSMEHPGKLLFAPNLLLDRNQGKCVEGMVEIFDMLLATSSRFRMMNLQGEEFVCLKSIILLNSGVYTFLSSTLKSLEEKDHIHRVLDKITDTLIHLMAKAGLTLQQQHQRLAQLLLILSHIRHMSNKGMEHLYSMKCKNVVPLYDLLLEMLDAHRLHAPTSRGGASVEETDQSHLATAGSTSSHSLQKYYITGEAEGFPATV
molecule,measurement,setting,value
CC#C[C@]1(O)CC[C@H]2[C@@H]3CCC4=CC(=O)CCC4=C3[C@@H](c3ccc(N(C)C)cc3)C[C@@]21C [RU-486],Emax,PR-A,13.3 ± 10.2%
same,Emax,PR-B,3.25 ± 1.17%
same,Emax,GR,8.06 ± 0.66%
CC(=O)S[C@@H]1CC2=CC(=O)CC[C@]2(C)[C@H]2CC[C@@]3(C)[C@@H](CC[C@@]34CCC(=O)O4)[C@H]12 [Spironolactone],Emax,MR,6.24 ± 0.37%
B1,binding result,[1],binds

# Reference: publication PMC4961458 (eLife, 2016)
